In ChEMBL document CHEMBL4507283, “Data for DCP probe BI-1935” (2021):

Legend:
[1] = target: Serine/threonine-protein kinase MARK1 (Homo sapiens) (UniProt Q9P0L2); conditions: Compound concentration 1000.0 nM
[2] = target: Serine/threonine-protein kinase Sgk2 (Homo sapiens) (UniProt Q9HBY8); conditions: Compound concentration 1000.0 nM
[3] = target: Serine/threonine-protein kinase PLK4 (Homo sapiens) (UniProt O00444); conditions: Compound concentration 1000.0 nM
[4] = target: Serine/threonine-protein kinase tousled-like 1 (Homo sapiens) (UniProt Q9UKI8); conditions: Compound concentration 1000.0 nM
[5] = target: Cyclin-dependent kinase 9 (Homo sapiens) (UniProt P50750); conditions: Compound concentration 1000.0 nM
[6] = target: Cyclin-dependent kinase 7 (Homo sapiens) (UniProt P50613); conditions: Compound concentration 1000.0 nM
Chain of Cyclin-dependent kinase 7 (Homo sapiens) (P50613 whole entry): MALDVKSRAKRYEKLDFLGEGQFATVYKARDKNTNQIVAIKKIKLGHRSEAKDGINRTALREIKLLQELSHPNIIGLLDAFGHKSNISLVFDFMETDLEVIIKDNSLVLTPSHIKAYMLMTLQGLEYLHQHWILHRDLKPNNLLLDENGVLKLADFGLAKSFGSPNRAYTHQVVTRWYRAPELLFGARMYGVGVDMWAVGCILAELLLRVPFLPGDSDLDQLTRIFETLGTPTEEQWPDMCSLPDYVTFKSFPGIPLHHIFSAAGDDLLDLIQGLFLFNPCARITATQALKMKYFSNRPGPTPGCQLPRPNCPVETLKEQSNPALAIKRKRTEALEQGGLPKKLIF

[7] = target: Ribosomal protein S6 kinase alpha-1 (Homo sapiens) (UniProt Q15418); conditions: Compound concentration 1000.0 nM
[8] = target: Mitogen-activated protein kinase 7 (Homo sapiens) (UniProt Q13164); conditions: Compound concentration 1000.0 nM
[9] = target: TRAF2 and NCK-interacting protein kinase (Homo sapiens) (UniProt Q9UKE5); conditions: Compound concentration 1000.0 nM
Chain of TRAF2 and NCK-interacting protein kinase (Homo sapiens) (Q9UKE5 whole entry, looked up): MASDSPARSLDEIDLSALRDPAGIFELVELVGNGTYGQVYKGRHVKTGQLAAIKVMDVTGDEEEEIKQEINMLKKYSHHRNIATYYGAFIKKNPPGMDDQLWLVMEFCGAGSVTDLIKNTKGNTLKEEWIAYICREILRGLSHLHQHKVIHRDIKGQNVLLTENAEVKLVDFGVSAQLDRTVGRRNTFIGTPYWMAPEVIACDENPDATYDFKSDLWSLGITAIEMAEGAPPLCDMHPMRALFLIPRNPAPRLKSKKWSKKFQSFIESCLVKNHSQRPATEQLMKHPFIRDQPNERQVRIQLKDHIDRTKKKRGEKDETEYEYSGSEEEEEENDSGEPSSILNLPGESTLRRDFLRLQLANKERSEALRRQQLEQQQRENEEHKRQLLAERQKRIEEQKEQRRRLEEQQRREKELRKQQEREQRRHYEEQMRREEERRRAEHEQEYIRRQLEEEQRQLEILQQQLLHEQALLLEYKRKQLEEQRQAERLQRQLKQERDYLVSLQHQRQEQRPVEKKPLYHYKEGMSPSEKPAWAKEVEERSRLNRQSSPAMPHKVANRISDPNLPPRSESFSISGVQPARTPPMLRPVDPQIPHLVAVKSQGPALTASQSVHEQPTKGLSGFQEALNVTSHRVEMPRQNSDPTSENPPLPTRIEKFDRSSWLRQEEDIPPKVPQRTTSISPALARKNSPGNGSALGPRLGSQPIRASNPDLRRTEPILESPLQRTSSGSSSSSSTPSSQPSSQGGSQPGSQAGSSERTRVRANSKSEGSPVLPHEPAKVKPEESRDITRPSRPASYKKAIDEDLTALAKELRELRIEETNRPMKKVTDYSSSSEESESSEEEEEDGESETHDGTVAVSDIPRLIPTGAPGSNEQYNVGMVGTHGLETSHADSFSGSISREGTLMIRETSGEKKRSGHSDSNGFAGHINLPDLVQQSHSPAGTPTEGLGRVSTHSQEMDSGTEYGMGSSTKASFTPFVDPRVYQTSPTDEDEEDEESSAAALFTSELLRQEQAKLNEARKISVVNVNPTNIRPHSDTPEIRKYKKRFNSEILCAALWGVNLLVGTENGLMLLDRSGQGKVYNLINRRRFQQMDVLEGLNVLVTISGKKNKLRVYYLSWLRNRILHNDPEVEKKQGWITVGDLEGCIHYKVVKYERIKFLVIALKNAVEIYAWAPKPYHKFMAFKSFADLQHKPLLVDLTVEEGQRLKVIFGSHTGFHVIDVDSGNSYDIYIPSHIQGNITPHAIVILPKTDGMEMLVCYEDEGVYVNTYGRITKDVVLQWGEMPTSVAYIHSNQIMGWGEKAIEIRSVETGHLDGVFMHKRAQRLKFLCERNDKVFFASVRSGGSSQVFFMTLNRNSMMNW

[10] = target: Serine/threonine-protein kinase Chk2 (Homo sapiens) (UniProt O96017); conditions: Compound concentration 1000.0 nM
[11] = target: Tyrosine-protein kinase ABL1 (Homo sapiens) (UniProt P00519); conditions: Compound concentration 1000.0 nM
[12] = target: Cytoplasmic tyrosine-protein kinase BMX (Homo sapiens) (UniProt P51813); conditions: Compound concentration 1000.0 nM
[13] = target: Receptor-type tyrosine-protein kinase FLT3 (Homo sapiens) (UniProt P36888); conditions: Compound concentration 1000.0 nM
[14] = target: Cyclin-dependent kinase 19 (Homo sapiens) (UniProt Q9BWU1); conditions: Compound concentration 1000.0 nM
[15] = target: D(1A) dopamine receptor (Homo sapiens) (UniProt P21728); test: D1/HU Eurofins-Panlabs selectivity data (BI); conditions: Compound concentration 10.0 uM
[16] = target: Serine/threonine-protein kinase STK11 (Homo sapiens) (UniProt Q15831); conditions: Compound concentration 1000.0 nM
Chain of Serine/threonine-protein kinase STK11 (Homo sapiens) (Q15831 whole entry): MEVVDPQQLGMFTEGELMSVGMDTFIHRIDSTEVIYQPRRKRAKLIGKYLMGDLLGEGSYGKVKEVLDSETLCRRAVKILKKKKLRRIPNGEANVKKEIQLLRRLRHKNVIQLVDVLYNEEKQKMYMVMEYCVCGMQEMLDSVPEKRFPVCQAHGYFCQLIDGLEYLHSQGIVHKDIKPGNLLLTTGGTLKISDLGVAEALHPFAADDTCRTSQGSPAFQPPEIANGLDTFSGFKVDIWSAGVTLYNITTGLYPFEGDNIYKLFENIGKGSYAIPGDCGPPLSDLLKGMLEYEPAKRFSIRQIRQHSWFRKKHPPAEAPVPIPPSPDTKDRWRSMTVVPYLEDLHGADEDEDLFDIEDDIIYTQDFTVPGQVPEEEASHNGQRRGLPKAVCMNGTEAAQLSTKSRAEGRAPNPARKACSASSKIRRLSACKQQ

[17] = tested on: Tyrosine-protein kinase ABL1 (Homo sapiens), P00519 [M351T]; conditions: Compound concentration 1000.0 nM
[18] = target: Non-receptor tyrosine-protein kinase TNK1 (Homo sapiens) (UniProt Q13470); conditions: Compound concentration 1000.0 nM
[19] = tested on: Epidermal growth factor receptor (Homo sapiens), P00533 [UNDEFINED MUTATION]; conditions: Compound concentration 1000.0 nM
[20] = target: AP2-associated protein kinase 1 (Homo sapiens) (UniProt Q2M2I8); conditions: Compound concentration 1000.0 nM
[21] = target: Mitogen-activated protein kinase kinase kinase 10 (Homo sapiens) (UniProt Q02779); conditions: Compound concentration 1000.0 nM
[22] = target: Activin receptor type-1B (Homo sapiens) (UniProt P36896); conditions: Compound concentration 1000.0 nM
[23] = target: Activin receptor type-1 (Homo sapiens) (UniProt Q04771); conditions: Compound concentration 1000.0 nM
[24] = target: Mitogen-activated protein kinase 8 (Homo sapiens) (UniProt P45983); conditions: Compound concentration 1000.0 nM
Chain of Mitogen-activated protein kinase 8 (Homo sapiens) (P45983 whole entry): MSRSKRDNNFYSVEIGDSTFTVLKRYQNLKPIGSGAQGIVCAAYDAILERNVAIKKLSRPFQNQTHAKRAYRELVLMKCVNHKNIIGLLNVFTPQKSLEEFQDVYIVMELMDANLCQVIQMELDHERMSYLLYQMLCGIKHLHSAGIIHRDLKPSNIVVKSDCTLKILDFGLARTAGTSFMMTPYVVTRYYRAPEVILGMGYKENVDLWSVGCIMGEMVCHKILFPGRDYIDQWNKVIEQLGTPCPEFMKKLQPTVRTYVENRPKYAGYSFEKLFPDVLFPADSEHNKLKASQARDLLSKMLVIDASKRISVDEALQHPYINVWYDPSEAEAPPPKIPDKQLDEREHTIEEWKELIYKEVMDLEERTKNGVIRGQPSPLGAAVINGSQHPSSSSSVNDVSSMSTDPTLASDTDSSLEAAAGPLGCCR

[25] = target: Serine/threonine-protein kinase PRP4 homolog (Homo sapiens) (UniProt Q13523); conditions: Compound concentration 1000.0 nM
[26] = target: Serine/threonine-protein kinase WNK3 (Homo sapiens) (UniProt Q9BYP7); conditions: Compound concentration 1000.0 nM
[27] = target: Ephrin type-B receptor 4 (Homo sapiens) (UniProt P54760); conditions: Compound concentration 1000.0 nM
[28] = tested on: Mast/stem cell growth factor receptor Kit (Homo sapiens), P10721 [V559D,T670I]; conditions: Compound concentration 1000.0 nM
Chain of Mast/stem cell growth factor receptor Kit (Homo sapiens), P10721 [V559D,T670I] (P10721 whole entry V559D/T670I): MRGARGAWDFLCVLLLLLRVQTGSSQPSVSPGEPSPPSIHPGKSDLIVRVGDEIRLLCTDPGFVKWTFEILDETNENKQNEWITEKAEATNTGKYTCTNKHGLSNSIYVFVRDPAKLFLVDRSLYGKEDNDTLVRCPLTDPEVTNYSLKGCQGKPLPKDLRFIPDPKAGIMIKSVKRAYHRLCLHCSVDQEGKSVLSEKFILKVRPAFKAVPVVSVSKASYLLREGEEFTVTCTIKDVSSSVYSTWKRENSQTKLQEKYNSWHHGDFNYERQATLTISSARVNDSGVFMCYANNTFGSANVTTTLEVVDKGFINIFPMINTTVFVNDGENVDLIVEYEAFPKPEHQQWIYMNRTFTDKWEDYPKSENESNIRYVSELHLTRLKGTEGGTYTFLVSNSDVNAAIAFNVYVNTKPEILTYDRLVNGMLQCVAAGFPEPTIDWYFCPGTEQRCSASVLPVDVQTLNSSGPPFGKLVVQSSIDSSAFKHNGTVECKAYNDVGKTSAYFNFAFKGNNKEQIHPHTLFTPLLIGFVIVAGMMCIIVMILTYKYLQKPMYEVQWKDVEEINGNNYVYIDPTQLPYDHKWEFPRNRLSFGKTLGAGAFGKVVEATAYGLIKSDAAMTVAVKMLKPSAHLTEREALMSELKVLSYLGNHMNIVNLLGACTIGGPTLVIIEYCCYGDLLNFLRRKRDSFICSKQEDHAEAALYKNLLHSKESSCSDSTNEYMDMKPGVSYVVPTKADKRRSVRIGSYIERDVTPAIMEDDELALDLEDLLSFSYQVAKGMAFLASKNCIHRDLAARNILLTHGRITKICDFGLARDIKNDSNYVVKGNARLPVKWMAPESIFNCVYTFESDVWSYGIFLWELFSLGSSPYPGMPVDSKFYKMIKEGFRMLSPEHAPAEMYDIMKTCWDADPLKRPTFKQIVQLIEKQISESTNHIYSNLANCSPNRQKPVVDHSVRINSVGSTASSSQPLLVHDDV

[29] = target: Cyclin-dependent kinase-like 2 (Homo sapiens) (UniProt Q92772); conditions: Compound concentration 1000.0 nM
[30] = target: 5-hydroxytryptamine receptor 4 (Cavia porcellus) (UniProt O70528); test: 5HT4/GPIG Eurofins-Panlabs selectivity data (BI); conditions: Compound concentration 10.0 uM
[31] = target: Activin receptor type-2B (Homo sapiens) (UniProt Q13705); conditions: Compound concentration 1000.0 nM
[32] = target: Alpha-2A adrenergic receptor (Homo sapiens) (UniProt P08913); conditions: Compound concentration 10.0 uM
[33] = target: Glutamate receptor ionotropic, NMDA 1 (Rattus norvegicus) (UniProt P35439); test: GLUTAMAT/R Eurofins-Panlabs selectivity data (BI); conditions: Compound concentration 10.0 uM
[34] = target: Serine/threonine-protein kinase DCLK1 (Homo sapiens) (UniProt O15075); conditions: Compound concentration 1000.0 nM
[35] = target: Death-associated protein kinase 3 (Homo sapiens) (UniProt O43293); conditions: Compound concentration 1000.0 nM
[36] = target: Beta-2 adrenergic receptor (Rattus norvegicus) (UniProt P10608); test: BETA/R Eurofins-Panlabs selectivity data (BI); conditions: Compound concentration 10.0 uM
Chain of Beta-2 adrenergic receptor (Rattus norvegicus) (P10608 whole entry, looked up): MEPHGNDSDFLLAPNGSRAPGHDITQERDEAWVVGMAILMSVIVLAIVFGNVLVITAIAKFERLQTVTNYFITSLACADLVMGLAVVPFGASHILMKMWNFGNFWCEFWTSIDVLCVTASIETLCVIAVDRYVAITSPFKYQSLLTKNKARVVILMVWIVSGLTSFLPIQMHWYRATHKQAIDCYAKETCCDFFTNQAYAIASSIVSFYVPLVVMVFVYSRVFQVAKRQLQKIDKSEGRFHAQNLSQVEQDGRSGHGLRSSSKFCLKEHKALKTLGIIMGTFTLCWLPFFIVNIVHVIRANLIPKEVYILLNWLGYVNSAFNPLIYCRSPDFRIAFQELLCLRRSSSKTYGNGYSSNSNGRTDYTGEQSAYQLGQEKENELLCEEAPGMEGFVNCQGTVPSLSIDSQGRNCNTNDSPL

[37] = target: SNF-related serine/threonine-protein kinase (Homo sapiens) (UniProt Q9NRH2); conditions: Compound concentration 1000.0 nM
[38] = tested on: Epidermal growth factor receptor (Homo sapiens), P00533 [G719C]; conditions: Compound concentration 1000.0 nM
[39] = tested on: ALK tyrosine kinase receptor (Homo sapiens), Q9UM73 [C1156Y]; conditions: Compound concentration 1000.0 nM
[40] = target: Nitric oxide synthase 3 (Rattus norvegicus) (UniProt Q62600); test: CNOS Eurofins-Panlabs selectivity data (BI); conditions: Compound concentration 10.0 uM
[41] = target: Serine/threonine-protein kinase BRSK2 (Homo sapiens) (UniProt Q8IWQ3); conditions: Compound concentration 1000.0 nM
[42] = target: Homeodomain-interacting protein kinase 4 (Homo sapiens) (UniProt Q8NE63); conditions: Compound concentration 1000.0 nM
Chain of Homeodomain-interacting protein kinase 4 (Homo sapiens) (Q8NE63 whole entry): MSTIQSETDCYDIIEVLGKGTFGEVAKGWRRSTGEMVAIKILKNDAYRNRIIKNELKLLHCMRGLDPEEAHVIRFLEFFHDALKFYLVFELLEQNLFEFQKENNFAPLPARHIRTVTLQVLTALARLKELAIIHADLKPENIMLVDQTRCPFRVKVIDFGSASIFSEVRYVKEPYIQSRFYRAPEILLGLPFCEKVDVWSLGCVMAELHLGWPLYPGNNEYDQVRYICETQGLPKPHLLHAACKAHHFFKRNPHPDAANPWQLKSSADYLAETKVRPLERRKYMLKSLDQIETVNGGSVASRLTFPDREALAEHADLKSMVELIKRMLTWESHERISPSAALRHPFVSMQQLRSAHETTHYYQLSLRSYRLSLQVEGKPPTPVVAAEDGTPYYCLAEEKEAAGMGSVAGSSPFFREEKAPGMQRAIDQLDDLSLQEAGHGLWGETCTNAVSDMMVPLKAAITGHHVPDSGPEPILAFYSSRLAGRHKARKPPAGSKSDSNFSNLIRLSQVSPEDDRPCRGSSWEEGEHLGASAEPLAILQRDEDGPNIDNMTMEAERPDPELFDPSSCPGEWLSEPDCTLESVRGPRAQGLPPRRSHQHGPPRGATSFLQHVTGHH

[43] = target: Phosphatidylinositol 5-phosphate 4-kinase type-2 gamma (Homo sapiens) (UniProt Q8TBX8); conditions: Compound concentration 1000.0 nM
[44] = target: Cyclin-dependent kinase 14 (Homo sapiens) (UniProt O94921); conditions: Compound concentration 1000.0 nM
Chain of Cyclin-dependent kinase 14 (Homo sapiens) (O94921 whole entry): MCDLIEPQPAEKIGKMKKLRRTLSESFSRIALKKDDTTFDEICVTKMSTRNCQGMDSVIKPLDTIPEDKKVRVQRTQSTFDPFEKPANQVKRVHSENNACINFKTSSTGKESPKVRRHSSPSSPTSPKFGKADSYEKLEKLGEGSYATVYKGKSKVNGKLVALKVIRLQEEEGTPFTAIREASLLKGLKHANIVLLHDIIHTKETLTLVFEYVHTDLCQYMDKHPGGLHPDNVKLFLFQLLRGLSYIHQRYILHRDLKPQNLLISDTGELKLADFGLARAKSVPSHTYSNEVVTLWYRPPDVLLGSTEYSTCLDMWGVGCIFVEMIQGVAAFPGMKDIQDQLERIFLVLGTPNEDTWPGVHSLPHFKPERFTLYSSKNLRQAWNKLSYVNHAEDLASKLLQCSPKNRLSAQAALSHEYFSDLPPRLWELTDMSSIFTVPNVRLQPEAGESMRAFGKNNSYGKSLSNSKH

[45] = target: SRSF protein kinase 1 (Homo sapiens) (UniProt Q96SB4); conditions: Compound concentration 1000.0 nM

CCOCCn1cc(C(=O)Nc2ccc(-n3nc(-c4cccnc4)cc3C(F)(F)F)cn2)ccc1=O [BI 1935]
residual activity [1]: 100%
residual activity [2]: 100%
residual activity [3]: 100%
residual activity [4]: 100%
residual activity [5]: 97%
residual activity [6]: 88%
residual activity [7]: 100%
residual activity [8]: 86%
residual activity [9]: 100%
residual activity [10]: 0%
residual activity [11]: 61%
residual activity [12]: 84%
residual activity [13]: 87%
residual activity [14]: 95%
residual activity [15]: 110%
residual activity [16]: 89%
residual activity [17]: 100%
residual activity [18]: 83%
residual activity [19]: 100%
residual activity [20]: 100%
residual activity [21]: 100%
residual activity [22]: 79%
residual activity [23]: 75%
residual activity [24]: 72%
residual activity [25]: 97%
residual activity [26]: 76%
residual activity [27]: 100%
residual activity [28]: 100%
residual activity [29]: 100%
residual activity [30]: 103%
residual activity [31]: 100%
inhibition [32]: -1.74%
residual activity [33]: 103%
residual activity [34]: 83%
residual activity [35]: 91%
residual activity [36]: 98%
residual activity [37]: 88%
residual activity [38]: 97%
residual activity [39]: 100%
residual activity [40]: 112%
residual activity [41]: 100%
residual activity [42]: 100%
residual activity [43]: 100%
residual activity [44]: 100%
residual activity [45]: 98%
